Among the data in patent US20010049372A1, “Antiviral nucleoside analogues” (BioChem Pharma Inc., priority 1998, published 2001) are EC50 values, retold here.

Like-named read-outs stand apart in the source and are kept apart here.

Common to all, as to format: cell-based
For experiment [1], the system named is HIV-1IIIB. Briefly: Anti-HIV-1 antiviral assay with HIV-1IIIB in various cell types (RT activity). How it is done:
(§1) ANTIVIRAL ASSAYS. The anti-HIV-1 activity of the compound A (−) were assessed by employing HIV-1IIIB in a variety of cell types as previously described (Gu et al., 1992, 1994, 1999; Rando et al., 1995; Salomon et al., 1994). Briefly, cells were incubated with virus at a multiplicity of infection (MOI) of 0.005 for T cell assays and an MOI of 0.5 for monocytic cell assays for 3 hrs. Unbound virus was then removed by washing the cells, followed by seeding the cells into a 96-well plate. The infected cells were cultured in the presence of a serial concentrations of the test compound for 5-7 days. The anti-HIV-1 efficacy was determined by testing for HIV-1 RT activity or p24 level in the cell culture supernatants. All assays were performed in duplicate. Zidovudine and/or lamivudine were used as controls in each experiment.
Activity of the compound A (−) against HIV-1 in various cells. Anti-HIV-1 activity of the compound A (−) were tested in different types of cells, including human peripheral […] cells (PBMCs), T-cell (MT-2 and MT-4) and monocytic cell (U937) lines. The compound A (−) had submicromolar EC50s against HIV-1IIIB in different types of cells tested (Table 2).

The test system of experiment [2] is HXB2-D (wt). Briefly: Recombinant HIV-1 variants (RT activity). As to conditions: Human immunodeficiency virus 1, HXB2. How it is done:
as §1
(§2) Recombinant HIV-1 variants were prepared by introducing the designed mutations into HXB2-D by site-directed mutagenesis as described (Gu et al. 1992, 1994). The virus stocks were prepared by transfecting MT-4 cells with infectious viral DNA constructs. Antiviral activity of the compound A (−) was evaluated as described in example 10.

Experiment [3] relates to Zidovudine^R/Lamivudine^R (2) clinical HIV-1 isolates. The experiment in a line: Clinical HIV-1 isolates (RT activity). As to conditions: Human immunodeficiency virus 1, Zidovudine^R/Lamivudine^R (2 isolates). How it is done:
as §1
(§3) Clinical strains were isolated from PBMCs of HIV-1 infected individuals through co-culture with PBMCs from normal dornors. To determine the RT genotype of the HIV-1 clinical isolates, the proviral DNA was extracted from infected CD4^+ T-cells or PBMCs and the complete RT coding regions were amplified by PCR as previously reported (Gu et al 1992). The PCR product was purified and then directly sequenced using primer RTS (5′-CCAAAAGTTAAACAATGGC-3′) which is located at the 5′ portion of the RT coding region (nucleotide 2603-2621 of HXB2-D coordinates). Antiviral activity was evaluated as described in example 10.

Experiment [4] has as its system Zidovudine^R/Lamivudine^R (3) clinical HIV-1 isolates (second group of Table 7). The experiment in a line: Clinical HIV-1 isolates (RT activity). As to conditions: Human immunodeficiency virus 1, Zidovudine^R/Lamivudine^R (3 isolates). How it is done:
as §1, §3

Experiment [5] concerns Zidovudine^S/Lamivudine^S (7) clinical HIV-1 isolates. Briefly: Clinical HIV-1 isolates (RT activity). Conditions: Human immunodeficiency virus 1, Zidovudine^S/Lamivudine^S (7 isolates). How it is done: as §1, §3
In experiment [6] the test system is JM4. The experiment in a line: Recombinant drug resistant HIV-1 variants (RT activity). As to conditions: Human immunodeficiency virus 1. How it is done:
as §1, §2

Experiment [7] deals with K65R/M184V. The experiment is described as above. Conditions: Human immunodeficiency virus 1. How it is done: as §1, §2
The test system of experiment [8] is M184V. The experiment is described as above. Conditions: Human immunodeficiency virus 1. How it is done: as §1, §2
The subject of experiment [9] is E89G/M184V. The description is as above. Conditions: Human immunodeficiency virus 1. How it is done:
as §1, §2

For experiment [10], the system named is L74V. The description is as above. Conditions: Human immunodeficiency virus 1. How it is done:
as §1, §2

For experiment [11], the system named is M184I. The experiment is described as above. As to conditions: Human immunodeficiency virus 1. How it is done:
as §1, §2

Experiment [12] concerns NNRTI^R. Described as above. As to conditions: Human immunodeficiency virus 1. How it is done:
as §1, §2

Experiment [13] concerns JM1. Described as above. As to conditions: Human immunodeficiency virus 1, JM1. How it is done:
as §1, §2

In experiment [14] the test system is PI^R. The experiment is described as above. As to conditions: Human immunodeficiency virus 1. How it is done: as §1, §2
The mark [15] stands for this setting: Human immunodeficiency virus 1, HIV-1IIIB, MT-2 (4 determinations), RT activity, read-out: EC50.
Where [16] appears, read: Human immunodeficiency virus 1, HIV-1IIIB, MT-4 (2 determinations), RT activity, read-out: EC50.
Setting [17] is: Human immunodeficiency virus 1, MT2, HIV-1IIIB, MT-2 cells, determined by RT activity, read-out: EC50 (μM) ± S.D. in MT-2 cells.
[18] abbreviates: Human immunodeficiency virus 1, PBMC, HIV-1IIIB, PBMCs (3 determinations), RT activity, read-out: EC50.
[19] abbreviates: Human immunodeficiency virus 1, U-937, HIV-1IIIB, U937 (1 determination), RT activity, read-out: EC50.
The mark [20] stands for this setting: second group (r9), read-out: EC50 (μM), mean EC50 values.
The mark [21] stands for this setting: second group (r10), read-out: EC50 (μM), ranges of EC50s of the isolates in the same group.
Setting [22] is: read-out: EC50 (μM), mean EC50 values.
Setting [23] is: read-out: EC50 (μM), ranges of EC50s of the isolates in the same group.

`Nc1nc(NC2CC2)c2ncn([C@H]3CO[C@@H](CO)O3)c2n1` [Compound A (-), (−)-(2R,4R)-2-hydroxymethyl-4-(2′-amino-6′-cyclopropylamino-purine-9′-yl)-1,3-dioxolane]: the concentration giving a half-maximal response (EC50) (usually the concentration that produces a half-maximal response) in experiment [1] (setting [15]) is 0.082 µM; in [1] (setting [16]), 0.14 µM; in experiment [1] (setting [17]), 0.083 µM; in experiment [1] (setting [18]), 0.22 µM; in experiment [1] (setting [19]) it was 0.82 µM; in [2], 530 nM. Besides, the EC50 in experiment [3] is 0.33 µM; in [4] (setting [20]), 0.38 µM; in [4] (setting [21]) it was 0.13 to 0.51 µM; in experiment [5] (setting [22]), 0.15 µM; in [5] (setting [23]) it was 0.032 to 0.31 µM; in [6], 580 nM. For the same compound, the 50% effective concentration (EC50) in [7] was 1100 nM; in experiment [8], 530 nM; in experiment [9] it was 510 nM; in experiment [10], 620 nM; in [11] it was 990 nM; in experiment [12], 100 nM. Further, the results for the half-maximal effective concentration (EC50) in [13] and in experiment [14] were 1830 nM and 200 nM, respectively.

Turning to `Nc1ccn([C@@H]2CS[C@H](CO)O2)c(=O)n1` [Lamivudine, lamivudine], the concentration for a half-maximal effect (EC50) in experiment [1] (setting [15]) came to 0.061 µM; in experiment [1] (setting [16]) it was 0.17 µM; in [1] (setting [17]), 0.061 ± 0.028 µM; in experiment [1] (setting [18]) it was 0.035 µM; in experiment [1] (setting [19]), 0.014 µM; in experiment [2], 350 nM. Further, the EC50 in [3] is 4.1 µM; in experiment [4] (setting [21]), at least 5.1 µM; in [5] (setting [22]) it was 0.23 µM; in experiment [5] (setting [23]) it was 0.028 to 0.69 µM; in experiment [6], 850 nM; in experiment [7], above 40000 nM. The EC50 in experiment [8] is above 40000 nM; in experiment [9], above 40000 nM; in experiment [10] it was 510 nM; in [11] it was above 40000 nM; in [12], 150 nM; in experiment [13], above 40000 nM. Further, the EC50 in [14] is 290 nM.

On to `Cc1cn([C@H]2C[C@H](N=[N+]=[N-])[C@@H](CO)O2)c(=O)[nH]c1=O` [Zidovudine, zidovudine], for which the 50% effective concentration (EC50) in experiment [1] (setting [15]) came out at 0.0051 µM; in experiment [1] (setting [16]), 0.015 µM; in experiment [1] (setting [17]), 0.0051 ± 0.0025 µM; in experiment [1] (setting [18]), 0.0027 µM; in [1] (setting [19]), 0.027 µM; in [2], 23 nM. The half-maximal effective concentration (EC50) in experiment [3] is 1.15 µM; in experiment [4] (setting [20]) it was 0.012 µM; in experiment [4] (setting [21]), 0.0026 to 0.019 µM; in experiment [5] (setting [22]) it was 0.021 µM; in [5] (setting [23]) it was 0.0034 to 0.051 µM; in experiment [6] it was 270 nM. In addition, the concentration giving a half-maximal response (EC50) in experiment [7] is 31 nM; in [8] it was 20 nM; in experiment [9] it was 22 nM; in experiment [10] it was 10 nM; in experiment [11], 9 nM; in [12], 6.1 nM. Besides, the EC50 in experiment [13] is 27 nM; in [14], 17 nM.
